Measurements reported in publication PMC5703966, “Systemic clearance and brain distribution of carbazole-based cyanine compounds as Alzheimer’s disease drug candidates” (Scientific Reports, 2017).

How the values were obtained:
[1] = Liver microsomes stability with NADPH; format: in vitro ADME; conditions: human; for CLint scaled at 1 μM / microsomal CLint at 1 μM: liver microsomes, pH 7.4; for CLint scaled at 1 μM: read-out: Microsomes Cl int,scaled; for Microsomes scaled Cl hep: well-stirred model; for Microsomes Cl u, int,app: Cl int,app / f u,mic; for microsomal CLint at 1 μM: NADPH, read-out: Microsomes Cl int,app
WT and 3 × Tg-AD mice = test: Systemic clearance and brain distribution in WT and 3 × Tg-AD mice (8 months); format: in vivo, mouse; conditions: for K in: 1 mg/kg i.v.; for K puu,brain in AD mice relative to WT mice: higher in AD mice
Procedure: The transgenic (Tg) AD mice (B6; 129-Psen1 ^tm1Mpm Tg (APPSwe, tauP301L) 1Lfa/Mmjax) and the corresponding wild-type (WT) (B6129SF2/J) mice was obtained from the Jackson Laboratory (Bar Harbor, Maine, USA), and maintained by the Animal Facility of Faculty of Health Sciences in University of Macau. Either 27 WT or AD mice (8 months) were randomly separated into 9 groups with 3 mice at each time point. Blood and brain were collected at time points 0.083, 0.167, 0.25, 0.5, 1, 2, 4, 8 and 16 hours after i.v. dosing (1 mg/kg). Mice were euthanized by isoflurane followed by cervical dislocation. All the plasma, urine, bile and brain samples were stored at −70 °C for subsequent analysis. The analytical methods for systemic and brain PK parameters were shown in supplemental information (Supplemental Methods).
Parameters in animals were determined using non-compartmental analysis. […] Systemic Cl p was calculated as the i.v. dose divided by AUC0−∞ ^iv. The terminal rate constant (K el) was calculated by a linear regression of the log-linear concentration-time curve, and the terminal elimination t 1/2 was calculated as 0.693 divided by K el. Mean residence time from t = 0 to infinity (MRT 0−∞) was calculated as AUMC 0−∞ divided by AUC 0−∞. Apparent steady-state distribution volume (Vd ss) was determined as Cl p multiplied by MRT 0−∞. […] The Cl bile was derived as the amount of (in milligrams) of SLM or SLOH in the bile over the 24-hour interval postdose/AUC0-24h. The influx clearance into brain (K in) was calculated by using the amount of drug in the brain (homogenate) at time t (A, brain (t)) (corrected for the amount of drug remaining in the cerebral vasculature) divided by plasma exposure up to this time point (AUC, plasma (0 − t)). The C u,brain was calculated by A brain (homogenate, ng/g brain) divided by V u,brain (mL/g brain). The unbound ISF to plasma ratio (K puu,brain) was calculated by unbound AUC 0−t of ISF (ng/mL × min) divided by unbound AUC 0–t (ng/mL × min) of plasma.

OATP1A2 = biological target: T1, OATP1A2 (Homo sapiens, UniProt P46721); test: OATP substrate identification, uptake in stably transfected HEK293 cells; conditions: 1 and 10 μM, 10 mins
T1 sequence (P46721 1-670): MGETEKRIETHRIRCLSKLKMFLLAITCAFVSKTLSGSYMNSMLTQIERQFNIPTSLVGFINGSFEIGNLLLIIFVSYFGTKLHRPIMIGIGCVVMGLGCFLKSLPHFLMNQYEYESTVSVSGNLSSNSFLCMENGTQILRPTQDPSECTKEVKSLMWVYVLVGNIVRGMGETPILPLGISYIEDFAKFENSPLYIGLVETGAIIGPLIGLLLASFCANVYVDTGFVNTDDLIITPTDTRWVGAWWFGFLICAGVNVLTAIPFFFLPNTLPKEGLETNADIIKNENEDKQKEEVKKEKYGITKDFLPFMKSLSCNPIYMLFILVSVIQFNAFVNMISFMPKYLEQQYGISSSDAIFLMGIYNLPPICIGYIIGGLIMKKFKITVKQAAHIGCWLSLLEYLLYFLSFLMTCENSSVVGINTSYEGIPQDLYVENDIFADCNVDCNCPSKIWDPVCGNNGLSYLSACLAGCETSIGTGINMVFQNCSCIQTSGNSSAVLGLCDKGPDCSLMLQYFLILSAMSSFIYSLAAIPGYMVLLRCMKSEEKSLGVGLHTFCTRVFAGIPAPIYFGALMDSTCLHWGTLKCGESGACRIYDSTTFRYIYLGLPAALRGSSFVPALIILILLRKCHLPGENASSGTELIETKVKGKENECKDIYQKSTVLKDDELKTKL
Procedure: (§1) Daily changes of medium were performed and on the second day after seeding using medium containing 10 mM sodium butyrate.
(§2) Stably transfected HEK cells and control vector-transfected HEK293 cells were first washed (3 × 1 mL) with prewarmed HBSS (pH 7.4) and then were incubated with 250 μL of HBSS containing compounds at concentrations of 1 and 10 μM. Cells were incubated for 10 mins at 37 °C for all experiments. After incubation, uptake was stopped by aspirating the incubation solution and washing each well 3 times with 200 μL of ice-old HBSS. The cells were lysed in 150 μL of 1 M NaOH for 30 mins, and then neutralized by adding equal volumes of 1 M HCl.
(§3) The following equations (3 and 4) were used to calculate the uptake rates (U, pmol/mg/min) and the OATP1B1, OATP1B3, OATP2B1 and OATP1A2 uptake ratio (UR):3 U=Clysate/P×T 4 UR=UOATP1B1/1B3/2B1/1A2/UHEK293−MOCK where C lysate is the compound concentration in cell lysates. P is the protein concentration in cell lysates. T is the incubation time. U OATP1B1/1B3/2B1/1A2 is the uptake rate obtained in HEK293 stably transfected OATP1B1, OATP1B3, OATP2B1 or OATP1A2 transportation. U HEK293-MOCK is the uptake rate obtained in control vector-transfected HEK293 transportation.

OATP1B1 = biological target: T2, OATP1B1 (Homo sapiens, UniProt Q9Y6L6); test: as above; conditions: 1 and 10 μM, 10 mins
T2 sequence (Q9Y6L6 1-691): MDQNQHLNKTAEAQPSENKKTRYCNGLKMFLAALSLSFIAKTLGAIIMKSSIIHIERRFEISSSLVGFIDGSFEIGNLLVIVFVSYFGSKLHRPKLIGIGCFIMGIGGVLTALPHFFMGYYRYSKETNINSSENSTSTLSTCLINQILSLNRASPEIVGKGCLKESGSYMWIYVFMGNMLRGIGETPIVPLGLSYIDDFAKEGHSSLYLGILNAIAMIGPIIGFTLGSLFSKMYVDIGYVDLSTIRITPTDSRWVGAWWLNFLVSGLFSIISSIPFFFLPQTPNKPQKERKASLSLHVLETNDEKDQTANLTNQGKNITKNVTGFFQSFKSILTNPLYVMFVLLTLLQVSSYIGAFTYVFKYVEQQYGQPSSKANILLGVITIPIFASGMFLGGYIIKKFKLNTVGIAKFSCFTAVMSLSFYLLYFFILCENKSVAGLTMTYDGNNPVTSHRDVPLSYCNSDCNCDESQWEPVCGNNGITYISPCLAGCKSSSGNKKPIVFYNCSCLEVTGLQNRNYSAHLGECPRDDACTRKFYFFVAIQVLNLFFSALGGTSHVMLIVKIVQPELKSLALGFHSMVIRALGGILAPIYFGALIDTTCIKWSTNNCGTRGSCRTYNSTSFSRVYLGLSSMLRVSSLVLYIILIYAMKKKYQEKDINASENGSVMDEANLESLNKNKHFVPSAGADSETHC
Procedure: as §1, §2, §3

| Structure (SMILES) | CLint scaled at 1 μM [1] | Microsomes scaled Cl hep [1] | Microsomes Cl u, int,app [1] | microsomal CLint at 1 μM [1] | K in (WT and 3 × Tg-AD mice; AD mice 8 months) | K in (WT and 3 × Tg-AD mice; WT mice 8 months) | K puu,brain in AD mice relative to WT mice (WT and 3 × Tg-AD mice) | uptake by OATP1A2 transfected HEK293 versus WT cells (OATP1A2) | uptake by OATP1B1 transfected HEK293 versus WT cells (OATP1B1) |
| --- | --- | --- | --- | --- | --- | --- | --- | --- | --- |
| COCCOCCn1c2ccccc2c2cc(/C=C/c3cc[n+](C)c4ccccc34)ccc21.[I-] [SLM, (E)-4-(2-(9-(2-(2-methoxyethoxy)ethyl)-9H-carbazol-3-yl)-vinyl)-1-methyl-quinolin-1-iumiodide] | 140 ± 19 mL/min/kg | 1.67 ± 0.167 mL/min/kg | 1.50 ± 0.200^$ mL/min/mg | 110 ± 20 µL/min/mg | 4.10 ± 1.10 μL/min per g brain | 1.70 ± 0.630 μL/min per g brain | 4 fold | no significant differences | no significant differences |
| COCCOCCn1c2ccccc2c2cc(/C=C/c3cc[n+](CCO)c4ccccc34)ccc21 [SLOH, (E)-1-(2-hydroxyethyl)-4-(2-(9-(2-(2-metho-xyethoxy)-ethyl)-9H-carbazol-3-yl)vinyl) quinolin-1-ium chloride] | 82 ± 13 mL/min/kg | 2 ± 0.333 mL/min/kg | 1.00 ± 0.160^$ mL/min/mg | 70 ± 10 µL/min/mg | 4.00 ± 0.500 μL/min per g brain | 1.10 ± 0.100 μL/min per g brain | 8 fold | no significant differences | no significant differences |
